Source: article PMC11462260, “Anthricin-induced hyperactive proteasome and its molecular mechanism” (Biochemistry and Biophysics Reports, 2024)

Target: T1, human 20S proteasome (Homo sapiens, UniProt P28072+P28074+Q99436)
T1 construct: gene PSMB6; native 20S core particle from human erythrocytes (commercial), 28 subunits of 14 types, lysine-biotinylated, on streptavidin beads
Assay: pull-down on biotinylated proteasome beads, LC-MS/MS of eluate
Conditions: 20 uM anthricin, 250 pmol proteasome, 30 min, room temperature, D-PBS with 0.1 % BSA; binding site not mapped experimentally

**Q.** Which “pull-down on biotinylated proteasome beads, LC-MS/MS of eluate” value does the source give for `COc1cc([C@@H]2c3cc4c(cc3C[C@H]3COC(=O)[C@@H]32)OCO4)cc(OC)c1OC` [anthricin] here?
**A.** When anthricin was mixed with the proteasome-immobilized beads, a clear peak corresponding to anthricin was detected
